Assay results taken from ChEMBL document CHEMBL1147822, “One-pot synthesis and SAR study of cis-2,6-dialkyl-4-chloro-tetrahydropyrans” (2006).

How the values were obtained:
Format in all cases: functional
WiDr = experiment: Antiproliferative activity against human WiDr cells
SW1573 = experiment: Antiproliferative activity against human SW1573 cells; conditions: for CC50: read-out: LC50 (the source's name)
A2780 = experiment: Antiproliferative activity against human A2780 cells; conditions: for CC50: read-out: LC50 (the source's name)

GI50 (SW1573) [µM] | GI50 (A2780) [µM] | Compound | GI50 (WiDr) [µM] | LC50 (lethal concentration, 50% net cell kill) (WiDr) [µM] | TGI (WiDr) [µM] | TGI (SW1573) [µM] | TGI (A2780) [µM] | CC50 (A2780) [µM] | CC50 (SW1573) [µM]
> 100 | > 100 | CC(C)C[C@H]1C[C@@H](Cl)C[C@@H](C)O1 | > 100 |  |  |  |  |  | 
67 | 63 | CC(C)C[C@@H]1C[C@H](Cl)C[C@H](CC(C)C)O1 | > 100 |  |  | 89 | 90 |  | 
> 100 | > 100 | Cl[C@H]1CCO[C@@H](c2ccccc2)C1 | > 100 |  |  |  |  |  | 
> 100 | > 100 | CC(C)C[C@H]1C[C@@H](Cl)CCO1 | > 100 |  |  |  |  |  | 
30 | 21 | CC(C)C[C@H]1C[C@@H](Cl)C[C@@H](c2ccc([N+](=O)[O-])cc2)O1 | 38 |  |  |  | 64 |  | 

The next lines start with the compound.

Compound | GI50 (SW1573) [µM] | GI50 (A2780) [µM] | GI50 (WiDr) [µM] | LC50 (lethal concentration, 50% net cell kill) (WiDr) [µM] | TGI (WiDr) [µM] | TGI (SW1573) [µM] | TGI (A2780) [µM] | CC50 (A2780) [µM] | CC50 (SW1573) [µM]
COc1ccc([C@@H]2C[C@H](Cl)C[C@H](CC(C)C)O2)cc1 | 30 | 25 | 36 | 95 | 73 | 80 | 57 | 95 | 
CC(C)C[C@H]1C[C@@H](Cl)C[C@@H](C2CCCCC2)O1 | 22 | 20 | 26 |  | 63 | 43 | 38 | 73 | 82
CC(C)C[C@H]1C[C@@H](Cl)C[C@@H](c2ccccc2)O1 | 24 | 17 | 39 |  | 88 | 48 | 35 | 72 | 90
O=[N+]([O-])c1ccc([C@H]2C[C@@H](Cl)CCO2)cc1 | > 100 | > 100 | > 100 |  |  |  |  |  | 
